This note sets out measurements from patent US12298308B2, “Neoadjuvant chemotherapy induces breast cancer metastasis through a TMEM-mediated mechanism” (Albert Einstein College of Medicine, priority 2017, dated 2025).

The test system of test [1] is TMEM. Put plainly: TMEM score by triple-stain immunohistochemistry in mouse breast tumors. Format: in vivo. The text has this:
This hypothesis was investigated in the following breast carcinoma models: (i) transgenic MMTV-PyMT mice bearing spontaneous breast tumors, (ii) FVB mice transplanted orthotopically with tumors from MMTV-PyMT donors, and (iii) two patient-derived xenografts (PDX), HT17 and HT33, developed previously in our laboratory (31). […] Treatment of all groups began at the early carcinoma stage (tumor size of ˜0.3 cm) when there is minimal or absent necrosis. It was decided to work with the early-stage PyMT mouse mammary carcinoma model because it more accurately reflects clinically relevant scenarios where most women present with small tumors of <2 cm (32).
(§1) Drug Administration. The following drugs were administered in mice: Paclitaxel was given at 10 mg/Kg i.v every 5 days for 2 weeks; Doxorubicin was given at 5 mg/Kg i.v. every 5 days for 2 weeks; Cyclophosphamide was given at 120 mg/Kg i.p. only once; Rebastinib was given at 10 mg/Kg per os, every 3-4 days for 4 weeks.
(§2) Animals and Animal Procedures. MMTV-PyMT mice were bred in-house at the Albert Einstein College of Medicine (AECOM). Generation of MMTV-PyMT Mena^−/− has been described previously (28). CFP- or Dendra2-labeled mammary carcinoma cells were generated on the FVB background by co-injection of Tg(MMTV-iCRE)1jwp together with Tg(PCAG-loxp-CATstop-loxp-CFP) or Tg(loxP-stop-loxP-PDendra2)jwp plasmids, respectively, by conventional methods in the Albert Einstein Transgenic Mouse Facility. All syngeneic transplantation models were generated through orthotopic transplantation of 1 mm×1 mm tumor chunks, using tumors of 1 cm-diameter from 12-16-week old MMTV-PyMT mena−/− or mena+/+ donor mice into 5-6 week-old FVB recipients. Tumor chunks were implanted on the fourth mammary pad on the left side. The generation of the ER^− HT17 and ER^+ HT33 patient-derived xenografts has been described previously (31). Animal handling and associated procedures were approved by the Institutional Animal Care and Use Committee (IACUC). Additional information is detailed in Supplementary Methods.
Histology and TMEM Immunohistochemistry. Breast tumors and lungs were isolated, rinsed in PBS, fixed in 10% neutral buffered formalin for 48 hours, dehydrated and embedded in paraffin. Sections (5 μm) were stained with H & E or TMEM triple-stain immunohistochemistry, as previously described (3).

Test [2] concerns Tie2^hi/Vegf^hi macrophages. Kind of test: Macrophage infiltration by multi-channel immunofluorescence (Iba1, Cd31, Tie2, Vegf). Format: in vivo, mouse.
Description: The functional TMEM sites contain Tie2^hi/Vegf^hi macrophages and invasive tumor cells in perivascular regions (1), and it was independently shown that chemotherapy may promote mobilization of such Tie2^hi monocyte progenitors in primary tumors (8, 10). The Tie2^hi/Vegf^hi macrophage subpopulation was quantified herein using multi-channel immunofluorescence (IF) imaging (FIGS. 1D-F) (10, 14, 34). FIG. 1E illustrates a representative IF image of a Tie2^hi/Vegf^hi macrophage quantified using Cd31, Iba1, Vegf and Tie2 staining.
as §1, §2
Immunofluorescence. Slides were deparaffinized by melting at 60° C. in an oven equipped with a fan for 20 minutes, followed by 2× xylene treatment for 20 minutes. Slides were rehydrated and antigen retrieval was done in 1 mM EDTA (pH 8.0) or 1× citrate buffer (pH 6.0) (Diagnostic BioSystems) at 97° C. for 20 minutes in a conventional steamer. Endogenous peroxidase was blocked by using 0.3% hydrogen peroxide in water, followed by incubation of slides in a blocking buffer solution (10% FBS, 1% BSA, 0.0025% fish skin gelatin in 0.05% PBST) for 60 minutes at room temperature. The following primary antibodies were used in different combinations, depending on the experiment: chicken anti-Mena^INV (0.25 ug/mL, generated in-house in the lab of John S. Condeelis), rabbit anti-Cd31 (1:400; 77699s; Cell Signaling), rabbit anti-Vegf (1:2,000; Rb 9031-PO-A; Thermo), rat anti-Tie2 (1:100; 16-5987-82; eBioscience), rabbit anti-Iba1 (1:6,000; 019-19741; Wako), rat anti-endomucin (1:500; sc-65495; Santa Cruz), rabbit anti-TMR (1:1,000; A-6397; Life Technologies). Secondary antibody treatment was performed using HRP-conjugated antibodies, and was followed by tyramide signal amplification (TSA), using the Perkin Elmer; Opal™ 4-color Fluorescent IHC kit, according to the manufacturer's directions. All slides were imaged on the Pannoramic 250 Flash II digital whole slide scanner, using a 20×0.75NA objective lens. Image analysis was performed in ImageJ, detailed in Supplementary Methods.

For test [3], the system named is TMEM. Put plainly: Intravital imaging of TMEM-dependent vascular permeability (bursting). Format: in vivo, mouse. The note with it: co-administration of rebastinib in paclitaxel-treated mice; intravital imaging.
Description: Paclitaxel Induces TMEM-Dependent Vascular Permeability in Breast Tumors—Given that chemotherapy treatment may affect blood vessel dynamics by inducing angiogenesis (9, 11-13, 35-37), intravital imaging (IVI) (FIG. 2A) was used to investigate whether neoadjuvant paclitaxel induces TMEM-dependent (localized) or TMEM-independent (more universal) blood vessel leakage. […] As also reported previously (1), we never observed any bursting incidents without juxtaposition to a clearly defined TMEM site. Bursting was documented by the accumulation of Dextran-TMR signal over time around an active TMEM site, and no such accumulation was observed away from TMEM (FIGS. 2B-C). The entire time-lapse of these was recorded in videos, respectively. The intensity values from all TMEM-mediated bursting incidents observed in paclitaxel-treated mice were averaged and plotted over the entire time of bursting activity (FIG. 2D), which confirmed the transient nature of paclitaxel-induced TMEM-dependent vascular permeability.
as §1
Intravital Imaging. Intravital imaging was performed using a custom-built two-laser multiphoton microscope, as previously described (57). Mice were anesthetized using 0.75-2.5% isofluorane, depilated. A skin flap procedure, previously developed (58), was performed by exposing the 4th or 5th mammary fat pad. Given the early stage of carcinoma and small tumor size, this necessitated the development of a custom fixturing technique where the exposed tissue was stabilized by affixing the edge of a 10-mm window fitted with an 8-mm clear aperture respectively with cyanoacrylate. The mouse was then placed on a fixturing plate, fitted to the respective window, on the microscope xy stage and imaging was performed in the center of the window away from the glue. The animal was placed in a heated chamber, AirTherm ATX forced air heater (WPI Inc.), maintained at physiologic temperature during the course of imaging, and supplemented with 50-100 uL of PBS per hour via the tail vein catheter. As previously described (1), three milligrams of 155-kDa TMR-dextran (Sigma) were administered via the catheter to visualize the vasculature. All images were reconstructed and analyzed in ImageJ (59), as described in Supplementary Methods.

The subject of test [4] is circulating tumor cells. Put plainly: Circulating tumor cells per mL of blood. In kind it is in vivo, mouse. The note with it: PyMT-transplantation and HT17 xenograft. The procedure: as §1
Circulating Tumor Cells. Mice were anesthetized with 3.5-4.5% isoflurane, and blood was taken from the right ventricle by heart puncture, using 25G needles coated with heparin. Erythrocytes were lysed, using 10 ml of 1×RBC lysis buffer (multi-species, eBioscience). Cancer cells were quantified, as previously described (31, 60).

Where [5] appears, read: rebastinib in paclitaxel-treated animals.
The mark [6] stands for this setting: single agent vs vehicle, PyMT-transplantation and HT17 xenograft.

For `CNC(=O)c1cc(Oc2ccc(NC(=O)Nc3cc(C(C)(C)C)nn3-c3ccc4ncccc4c3)c(F)c2)ccn1` [rebastinib, 4-[4-[(5-tert-butyl-2-quinolin-6-ylpyrazol-3-yl)carbamoylamino]-3-fluorophenoxy]-N-methylpyridine-2-carboxamide], in test [1] (setting [5]), the TMEM assembly result was “without affecting”. The “overall TMEM score (TMEM assembly)” value in test [1] (setting [6]) is “did not significantly affect”. For the same compound, the “number of perivascular Tie2^hi/Vegf^hi macrophages” value in test [2] (setting [5]) is given as “decreased”. For the same compound, the “density of perivascular Tie2^hi/Vegf^hi macrophages” value in test [2] (setting [6]) is on record as “did not significantly affect”. Besides, in test [3], the frequency of bursting result is “completely abolished” and the incidence of bursting result was “completely abolished”. Besides, the circulating tumor cells entry in test [4] (setting [5]) is reported as “decreased circulating tumor cells to the level observed in the control animals”. The “number of CTCs (TMEM activity)” value in test [4] (single agent vs vehicle) is “reduced”.
